Results taken from ChEMBL document CHEMBL2034833, “Synthesis of chalcone-amidobenzothiazole conjugates as antimitotic and apoptotic inducing agents” (Bioorg Med Chem, 2012).

Assays:
NCI-H226 = experiment: Growth inhibition of human NCI-H226 cells after 48 hrs by sulforhodamine B assay; type: functional; settings: NCI-H226, 48 h
A549 [1] = experiment: Induction of apoptosis in human A549 cells assessed as early apoptotic cells at 2 uM after 48 hrs by annexin-V FITC/propidium iodide staining based FACS analysis; type: functional
TK-10 = experiment: Growth inhibition of human TK10 cells after 48 hrs by sulforhodamine B assay; type: functional; settings: TK-10, 48 h
SK-MEL-5 = experiment: Growth inhibition of human SK-MEL-5 cells after 48 hrs by sulforhodamine B assay; type: functional; settings: SK-MEL-5, 48 h
[2] = Inhibition of tubulin polymerization after 1 hr by fluorescence assay
LOX IMVI = experiment: Growth inhibition of human LOXIMVI cells after 48 hrs by sulforhodamine B assay; type: functional
OVCAR-8 = experiment: Growth inhibition of human OVCAR8 cells after 48 hrs by sulforhodamine B assay; type: functional; settings: OVCAR-8, 48 h
A549 [3] = experiment: Induction of apoptosis in human A549 cells assessed as increase in caspase3 activity using AFC-conjugated Ac-DEVD as substrate at 2 uM after 48 hrs by fluorescence assay relative to control; type: functional
A549 [4] = experiment: Cell cycle arrest in human A549 cells assessed as cell accumulation at G0/G1 phase at 4 uM after 48 hrs by propidium iodide staining based flow cytometry (reference value: 70.15%); type: functional
SK-OV-3 = experiment: Growth inhibition of human SKOV3 cells after 48 hrs by sulforhodamine B assay; type: functional; settings: SK-OV-3, 48 h
MCF7 [5] = experiment: Growth inhibition of human MCF7 cells after 48 hrs by sulforhodamine B assay; type: functional; settings: MCF7, 48 h
HOP-62 = experiment: Growth inhibition of human HOP62 cells after 48 hrs by sulforhodamine B assay; type: functional; settings: HOP-62, 48 h
NCI-H23 = experiment: Growth inhibition of human NCI-H23 cells after 48 hrs by sulforhodamine B assay; type: functional; settings: NCI-H23, 48 h
CAKI-1 = experiment: Growth inhibition of human CAKI-1 cells after 48 hrs by sulforhodamine B assay; type: functional; settings: CAKI-1, 48 h
ACHN = experiment: Cytotoxicity against human ACHN cells after 48 hrs by MTT assay; type: functional, cell-based
SF-539 = experiment: Growth inhibition of human SF539 cells after 48 hrs by sulforhodamine B assay; type: functional; settings: SF-539, 48 h
MCF7 [6] = experiment: cells; settings: Homo sapiens, MCF7, 48 h
Description: Cytotoxicity against human MCF7 cells after 48 hrs by MTT assay

A549 [7] = experiment: Cell cycle arrest in human A549 cells assessed as cell accumulation at subG1 phase at 2 uM after 48 hrs by propidium iodide staining based flow cytometry (reference value: […]); type: functional
IGROV-1 = experiment: Growth inhibition of human IGROV1 cells after 48 hrs by sulforhodamine B assay; type: functional; settings: IGROV-1, 48 h
HCC 2998 = experiment: Growth inhibition of human HCC2998 cells after 48 hrs by sulforhodamine B assay; type: functional; settings: HCC 2998, 48 h
HCT-15 = experiment: Growth inhibition of human HCT15 cells after 48 hrs by sulforhodamine B assay; type: functional; settings: HCT-15, 48 h
A549 [8] = experiment: Cell cycle arrest in human A549 cells assessed as cell accumulation at G2/M phase at 4 uM after 48 hrs by propidium iodide staining based flow cytometry (reference value: 23.75%); type: functional
KM12 = experiment: Growth inhibition of human KM12 cells after 48 hrs by sulforhodamine B assay; type: functional; settings: KM12, 48 h
EKVX = experiment: Growth inhibition of human EKVX cells after 48 hrs by sulforhodamine B assay; type: functional
A549 [9] = experiment: cells; settings: Homo sapiens, A549, 48 h
Description: Cytotoxicity against human A549 cells after 48 hrs by MTT assay

SW-620 = experiment: Growth inhibition of human SW620 cells after 48 hrs by sulforhodamine B assay; type: functional; settings: SW-620, 48 h
UO-31 = experiment: Growth inhibition of human UO31 cells after 48 hrs by sulforhodamine B assay; type: functional; settings: UO-31, 48 h
T47D = experiment: Growth inhibition of human T47D cells after 48 hrs by sulforhodamine B assay; type: functional
RPMI-8226 = experiment: Growth inhibition of human RPMI8226 cells after 48 hrs by sulforhodamine B assay; type: functional; settings: RPMI-8226, 48 h
RXF 393 = experiment: Growth inhibition of human RXF393 cells after 48 hrs by sulforhodamine B assay; type: functional; settings: RXF 393, 48 h
NCI-H522 = experiment: Growth inhibition of human NCI-H522 cells after 48 hrs by sulforhodamine B assay; type: functional; settings: NCI-H522, 48 h
HCT-116 = experiment: Growth inhibition of human HCT116 cells after 48 hrs by sulforhodamine B assay; type: functional; settings: HCT-116, 48 h
M14 = experiment: Growth inhibition of human M14 cells after 48 hrs by sulforhodamine B assay; type: functional; settings: M14, 48 h
SR = experiment: Growth inhibition of human SR cells after 48 hrs by sulforhodamine B assay; type: functional
A549 [10] = experiment: Growth inhibition of human A549 cells after 48 hrs by sulforhodamine B assay; type: functional; settings: A549, 48 h
SNB-19 = experiment: Growth inhibition of human SNB19 cells after 48 hrs by sulforhodamine B assay; type: functional; settings: SNB-19, 48 h
A549 [11] = experiment: Cell cycle arrest in human A549 cells assessed as cell accumulation at S phase at 4 uM after 48 hrs by propidium iodide staining based flow cytometry (reference value: […]); type: functional
Malme-3M = experiment: Growth inhibition of human MALME-3M cells after 48 hrs by sulforhodamine B assay; type: functional
MDA-MB-231 = experiment: Growth inhibition of human MDA-MB-231 cells after 48 hrs by sulforhodamine B assay; type: functional; settings: MDA-MB-231, 48 h

COc1ccc(/C=C/C(=O)c2cc(OC)c(OC)c(OC)c2)cc1OCC(=O)Nc1nc2ccc(OC(F)(F)F)cc2s1
GI50 (NCI-H226): 3350 nM
Activity (A549 [1]): 1.3%
GI50 (TK-10): 2080 nM
GI50 (SK-MEL-5): 2030 nM
IC50 [2]: 5200 nM
GI50 (LOX IMVI): 470 nM
GI50 (OVCAR-8): 1540 nM
fold change (FC) (A549 [3]): 4
Activity (A549 [4]): 8.68%
GI50 (SK-OV-3): 2160 nM
GI50 (MCF7 [5]): 1320 nM
GI50 (HOP-62): 2120 nM
GI50 (NCI-H23): 2150 nM
GI50 (CAKI-1): 2200 nM
IC50 (ACHN): 1730 nM
GI50 (SF-539): 300 nM
IC50 (MCF7 [6]): 3300 nM
Activity (A549 [7]): 4.5%
GI50 (IGROV-1): 2540 nM
GI50 (HCC 2998): 6180 nM
GI50 (HCT-15): 400 nM
Activity (A549 [8]): 83.21%
GI50 (KM12): 1510 nM
GI50 (EKVX): 5110 nM
IC50 (A549 [9]): 900 nM
GI50 (SW-620): 1080 nM
GI50 (UO-31): 1610 nM
GI50 (T47D): 3080 nM
GI50 (RPMI-8226): 2020 nM
GI50 (RXF 393): 1580 nM
GI50 (NCI-H522): 670 nM
GI50 (HCT-116): 1430 nM
GI50 (M14): 1720 nM
GI50 (SR): 390 nM
GI50 (A549 [10]): 1990 nM
GI50 (SNB-19): 1580 nM
Activity (A549 [11]): 4.95%
GI50 (Malme-3M): 2690 nM
GI50 (MDA-MB-231): 2010 nM
